Measurements: the NIST ThermoML archive (doi:10.1016/j.jct.2006.09.001)
Where “and” joins values, the source holds several entries; their conditions need not be identical. Identical values can stand only once.

Key:
[1] = for Normal melting temperature: DTA
[2] = Molar enthalpy of transition or fusion; conditions: Crystal; DSC

O=C(c1ccccc1)c1ccc[cH-]1.[Fe+2].c1cc[cH-]c1 [benzoylferrocene]
[1], Transpiration method
Conditions	vapor or sublimation pressure [kPa]
342.3 K, Crystal	2.2e-05
347.2 K, Crystal	3.8e-05
350.2 K, Crystal	5.3e-05
350.9 K, Crystal	5.8e-05
353 K, Crystal	7.5e-05
356 K, Crystal	9.7e-05
357.8 K, Crystal	0.000123
360.3 K, Crystal	0.000164
363 K, Crystal	0.00021
364 K, Crystal	0.000246
366.4 K, Crystal	0.000313
370 K, Crystal	0.000441
371.7 K, Crystal	0.000553
373.6 K, Crystal	0.000674
377.3 K, Crystal	0.000963
379.3 K, Crystal	0.001207
384 K, Liquid	0.00187
386.2 K, Liquid	0.00223
389.1 K, Liquid	0.0027
392.4 K, Liquid	0.00338
396 K, Liquid	0.00428
397.9 K, Liquid	0.00488
402 K, Liquid	0.00618
402.6 K, Liquid	0.00664
404.8 K, Liquid	0.00742
408.8 K, Liquid	0.00977
408.9 K, Liquid	0.00961
410.6 K, Liquid	0.01054
413.6 K, Liquid	0.01254
416.8 K, Liquid	0.01548
419.7 K, Liquid	0.01891
423.3 K, Liquid	0.02256
426.6 K, Liquid	0.02806
429.6 K, Liquid	0.03229

Conditions	Normal melting temperature [°C]
[1], Crystal	109.5

Conditions	Molar enthalpy of transition or fusion [kcal/mol]
[2]	7.15

[CH]1C=CC=C1.[CH]1C=CC=C1.[Fe] [ferrocene]
[1], Crystal, Transpiration method
Conditions	vapor or sublimation pressure
289.7 K	0.00041 kPa
299.6 K	0.00116 kPa
303.5 K	0.00169 kPa
303.6 K	0.00172 kPa
307.5 K	0.00249 kPa
312.5 K	0.00388 kPa
317.6 K	0.00605 kPa
322.6 K	0.00945 kPa
322.7 K	0.00932 kPa
327.6 K	0.014 kPa
332.8 K	0.02131 kPa and 0.02096 kPa
337.9 K	0.03024 kPa
342.9 K	0.04379 kPa
348 K	0.06337 kPa
353.1 K	0.09205 kPa
358.3 K	0.1334 kPa
363.4 K	0.1803 kPa

Conditions	Normal melting temperature [°C]
[1], Crystal	174.7

Conditions	Molar enthalpy of transition or fusion [kcal/mol]
[2]	4.37

[Fe+2].c1cc[cH-]c1.c1ccc(C[c-]2cccc2)cc1 [benzylferrocene]
[1], Crystal
Conditions	vapor or sublimation pressure [kPa]
311.7 K	1.2e-05
313 K	1.3e-05
318 K	2.7e-05
323.3 K	5.2e-05
325.1 K	6.4e-05
325.3 K	6.5e-05
327.2 K	8.6e-05
331.3 K	0.000132
331.9 K	0.000152
333.3 K	0.00017
335.9 K	0.000236
338.4 K	0.000303
338.9 K	0.000323
341.3 K	0.000442

[1], Liquid, Transpiration method
Conditions	vapor or sublimation pressure [kPa]
350.7 K	0.00111
352.9 K	0.00129
356.9 K	0.00181
361 K	0.00247
365 K	0.00332
369 K	0.0046
373.1 K	0.00602
377.1 K	0.0082

Conditions	Normal melting temperature [°C]
[1], Crystal	76.1

Conditions	Molar enthalpy of transition or fusion [kcal/mol]
[2]	5.66
